The text below walks through data of patent US8771687B2, “Methods for treating a tumor using an antibody that specifically binds GRP94” (University of Pittsburgh—Of the Commonwealth System of …, priority 2010, dated 2014).

Test [1] concerns BRAF mutated advanced melanoma. The conditions noted are these: cited from earlier work.
Test [2] deals with advanced melanoma with the V600E BRAF mutation. The following applies: patients with the V600E BRAF mutation, Phase I; cited from earlier work.
In test [3] the test system is V600E mutated melanoma cell lines sensitive to BRAF-I. In words: Development of secondary resistance on in vitro treatment with increasing doses, MTT assay. The conditions noted are these: increasing doses (2.5-10 μM). The class given is cell-based, human. (Formazan colour is commonly taken as a measure of viable cells.)
Protocol: The cell line M21 (harboring the V600E BRAF missense mutation) (4×10^5/well) was cultured in a 6-well plate containing RPMI 1640 medium supplemented with 10% FBS and 2.5 μM of PLX4720. Medium was changed every 4 days. On the 8th day the concentration of PLX4720 was increased to 5 μM. Cells were cultured under these conditions for 12 days changing the medium every 4 days. Then the concentration of PLX4720 in the medium was increased to 10 μM, and the medium has been changed every 3 days. Cells were cultured until when resistant colonies appeared (around 3 weeks). Cells were tested for resistance to BRAF-I PLX4720 by analyzing their growth in the presence of 10 μM of PLX4720, using the MTT assay.
Test [4] deals with GRP94 expression by M21 melanoma cell line. In words: Effect of BRAF-I on GRP94 expression, staining with mAb W9, flow cytometry. The class given is cell-based, human. The conditions noted are these: M21 cells, 1 μM of PLX4720, 14 days, vs untreated cells. For orientation: A flow cytometer gives signals particle by particle.
Protocol: Effect of BRAF-I on GRP94 expression by M21 melanoma cell line. Cells (2×10^5/ml) were incubated in RPMI 1640 medium containing 10% FCS with 1 μM of BRAF-I for 14 days. […] Untreated cells were used as control. Percentage of stained cells and mean fluorescence intensity (MFI) are indicated.
M21 cells were cultured in RPMI 1640 medium supplemented with 10% FBS and 1 μM of PLX4720. Cells were harvested after 14 days of culture, and washed twice with PBS-BSA. Cells (1×10^5/sample), and were stained with 1 μg of anti-GRP94 mAb W9. Human IgG (HIg) and untreated cells were used as controls. Following an incubation of 30 min at 4° C., cells were washed three times with PBS containing 2% of BSA (PBS-BSA). Cells were then incubated with an appropriate dilution of PE-conjugated anti-human IgG for 30 min at 4° C. Cells were washed and fixed with 2% PFA. Immunofluorescence was measured using a Cyan cytofluorimeter.
M21 cells were cultured in RPMI 1640 medium supplemented with 10% FBS and 1 μM of PLX4720. Cells were harvested after 14 days of culture, and washed twice with PBS-BSA. Cells (1×10^5/sample), and were stained with 1 μg of anti-GRP94 mAb W9. Human IgG (HIg) and untreated cells were used as controls. Following an incubation of 30 min at 4° C., cells were washed three times with PBS containing 2% of BSA (PBS-BSA). […]

On to `CCCS(=O)(=O)Nc1ccc(F)c(C(=O)c2c[nH]c3ncc(-c4ccc(Cl)cc4)cc23)c1F` [PLX4032, Vemurafenib], for which the response rate in test [1] (32 BRAF mutated advanced melanoma patients, phase II study) is recorded as 70%. The “median duration of response” value in test [1] (patients, secondary resistance) was roughly 8 months. Also, in test [2], the “tumor regression and overall survival” value was “effective in promoting tumor regression and increasing overall survival”.

Turning to `CCCS(=O)(=O)Nc1ccc(F)c(C(=O)c2c[nH]c3ncc(Cl)cc23)c1F` [PLX4720], the “time of in vitro treatment until cell lines became secondary resistant” value in test [3] is 3-4 week. The “expression of GRP94” value in test [4] is given as “increased expression of GRP94”.
